Data published in patent publication US20240116946A1 (Gilead Sciences, Inc., priority 2022, published 2024).
pEC50, pIC50: −log10 of the molar value. Like-named read-outs stand apart in the source and are kept apart here.

Tests used:
[1] = target: recombinant SARS-CoV-2 Main protease (Mpro) (Severe acute respiratory syndrome coronavirus 2 (2019-nCoV) (SARS-CoV-2), UniProt P0DTD1); test: Cov Mpro Biochemical IC50 Assay; settings: read-out: MPro IC50
SARS-CoV-2-NLuc = test: microbe, parasite or virus in culture; assay type: cell-based, SARS Coronavirus 2
[2] = recombinant SARS-CoV-2 Mpro 7.5 nM, fluorogenic peptide substrate 40 μM
[3] = Severe acute respiratory syndrome coronavirus, 48 h, read-out: MPro EC50
[4] = recombinant SARS-CoV-2 Mpro, fluorogenic peptide substrate
[5] = Severe acute respiratory syndrome coronavirus, 48 h; read-out: MPro EC50

Structure (SMILES)	pIC50 [1, 2]	pEC50 (SARS-CoV-2-NLuc; [3])	pIC50 [1, 4]	pEC50 (SARS-CoV-2-NLuc; read-out: MPro EC50)	pEC50 (SARS-CoV-2-NLuc; [5])
N#CCCn1c(=O)n(-c2cncc3cccnc23)c(=O)c2sc(-c3ccccc3Cl)cc21 [Example 905]	8.23	8.38			
O=C1NCCc2c1cccc2-c1cccc(Cl)c1-c1ccc2c(=O)n(-c3cncc4ccccc34)c(=O)[nH]c2c1 [Example 194]		7.69	> 8.60		
COc1cc(-c2cc3[nH]c(=O)n(-c4cncc5ccn(C)c(=O)c45)c(=O)c3s2)c(Cl)cc1F [Example 976, 6-(2-chloro-4-fluoro-5-methoxy-phenyl)-3-(6-methyl-5-oxo-2,6-naphthyridin-4-yl)-1H-thieno[3,2-d]pyrimidine-2,4-dione]	8.09	7.81			
N#CCn1c(=O)n(-c2cncc3cccnc23)c(=O)c2sc(-c3ccccc3Cl)cc21 [Example 710]	> 8.36	7.65			
COc1cnc(Cl)c(-c2cc3c(s2)c(=O)n(-c2cncc4cnn(C)c24)c(=O)n3CCC#N)c1 (single isomer, unassigned) [Example 1090, 3-(6-(2-chloro-5-methoxypyridin-3-yl)-3-(1-methyl-1H-pyrazolo[4,3-c]pyridin-7-yl)-2,4-dioxo-3,4-dihydrothieno[3,2-d]pyrimidin-1(2H)-yl)propanenitrile]	8.82			8.28	
COc1ccc(Cl)c(-c2cc3[nH]c(=O)n(-c4cncc5ncsc45)c(=O)c3s2)c1 [Example 486]	8.23			7.53	
Cn1cnc2cncc(-n3c(=O)c4sc(-c5cc(F)c(F)cc5Cl)cc4n(CCC#N)c3=O)c21 [Example 852]	7.56				6.98
COc1ccc(-c2cc3[nH]c(=O)n(-c4cncc5ccccc45)c(=O)c3s2)c(Cl)c1 [Example 722]	7.47	7.16			
CNC(=O)c1cccc(-c2cccc(Cl)c2-c2ccc3c(=O)n(-c4cncc5ccccc45)c(=O)[nH]c3c2)c1 [Example 189]		7.74	8.07		
O=c1c2sc(-c3ccccc3Cl)cc2n(CC2CCOCC2)c(=O)n1-c1cncc2ccccc12 [Example 120, 6-(2-chlorophenyl)-3-(isoquinolin-4-yl)-1-((tetrahydro-2H-pyran-4-yl)methyl)thieno[3,2-d]pyrimidine-2,4(1H,3H)-dione]		6.56	7.01		
COc1cc(-c2cc3c(s2)c(=O)n(-c2cncc(C)c2Cl)c(=O)n3CCC#N)c(Cl)cc1F [Example 944]	8.18	8.09			
COc1cc(-c2cc3c(s2)c(=O)n(-c2cncc4cnn(C)c24)c(=O)n3CCC#N)c(C)cc1Cl [Example 1018]	7.82	7.72			
COc1cc(-c2cc3c(s2)c(=O)n(-c2cncc(OC)c2C)c(=O)n3CCC#N)c(Cl)cc1F [Example 871]	7.12	6.66			
COc1ccc(C#N)c(-c2cc3c(cc2F)c(=O)n(-c2cncc4ccccc24)c(=O)n3CC#N)c1 (atropisomer, axis not shown) [Example 701]	> 8.44	7.10			
CCc1cncc(-n2c(=O)[nH]c3cc(-c4ccccc4Cl)sc3c2=O)c1 [Example 217]		7.02	7.18		
CN1CCN(c2ccc3cncc(-n4c(=O)[nH]c5cc(-c6ccccc6Cl)sc5c4=O)c3c2)CC1 [Example 400]	8.22	8.22			
O=c1[nH]c2cc(-c3ccccc3Cl)sc2c(=O)n1-c1cncc2c1CCCO2 [Example 596]	7.42	6.97			
Cc1cc(Cl)c(-c2cc3c(s2)c(=O)n(-c2cncc4cnn(C)c24)c(=O)n3CCC#N)cc1Cl [Example 1024]	8.01	7.45			
NC(=O)COc1cccc(Cl)c1-c1ccc2c(=O)n(-c3cncc4ccccc34)c(=O)[nH]c2c1 [Example 91]		5.94	6.67		
COc1cc(-c2cc3[nH]c(=O)n(-c4cncc5ccccc45)c(=O)c3cc2OC)c(Cl)cc1F [Example 672, 7-(2-chloro-4-fluoro-5-methoxyphenyl)-3-(isoquinolin-4-yl)-6-methoxyquinazoline-2,4(1H,3H)-dione]	7.42	7.62			
O=c1[nH]c2cc(-c3c(Cl)cccc3-c3cnn4c3COCC4)sc2c(=O)n1-c1cncc2ccccc12 [Example 523]	8.39	8.24			
N#CCCn1c(=O)n(-c2cncc3nnn(C4CC4)c23)c(=O)c2sc(-c3ccc(F)cc3Cl)cc21 [Example 883]	7.52	6.63			
Cc1cc(-c2cccc(Cl)c2-c2ccc3c(=O)n(-c4cncc5ccccc45)c(=O)[nH]c3c2)cc(C)n1 [Example 208]		8.38	8.12		
O=c1[nH]c2cc(-c3ccccc3)sc2c(=O)n1-c1cncc2ccccc12 [Example 2]		5.60	6.57		
Cn1cnc2cncc(-n3c(=O)c4sc(-c5ccccc5C#N)cc4n(CCC#N)c3=O)c21 [Example 844]	7.18				< 6.00
COc1ccc(Cl)c(-c2cc3[nH]c(=O)n(-c4cncc5cc(C(C)(C)O)sc45)c(=O)c3s2)c1 [Example 512, 6-(2-chloro-5-methoxy-phenyl)-3-[2-(1-hydroxy-1-methyl-ethyl)thieno[3,2-c]pyridin-7-yl]-1H-thieno[3,2-d]pyrimidine-2,4-dione]	8.24	7.57			

Structure (SMILES)	pIC50 [1, 2]	pEC50 (SARS-CoV-2-NLuc; [3])	pIC50 [1, 4]	pEC50 (SARS-CoV-2-NLuc; read-out: MPro EC50)	pEC50 (SARS-CoV-2-NLuc; [5])
COc1ccc(Cl)c(-c2cc3[nH]c(=O)n(-c4cncc5cccc(Cl)c45)c(=O)c3s2)c1 [Example 601]	> 8.60	7.83			
O=c1[nH]c2cc(-c3ccccc3Cl)sc2c(=O)n1-c1cncc(C2CCC2)c1 [Example 379]			6.36		6.73
N#Cc1ccc(Cl)c(-c2cc3[nH]c(=O)n(-c4cncc5ccccc45)c(=O)c3s2)c1 [Example 545]	7.53	6.95			
COc1cnc(Cl)c(-c2cc3c(s2)c(=O)n(-c2cncc(C)c2)c(=O)n3CCC#N)c1 [Example 885]	8.12				7.64
Cn1cncc1-c1cccc(Cl)c1-c1cc2[nH]c(=O)n(-c3cncc4ccccc34)c(=O)c2s1 [Example 525]	7.98	7.09			
Cn1ncc2cncc(-n3c(=O)c4sc(-c5cc(C(F)(F)F)ccc5C#N)cc4n(CCC#N)c3=O)c21 [Example 822]	7.02				6.46
CCCn1cc(-c2cccc(Cl)c2-c2ccc3c(=O)n(-c4cncc5ccccc45)c(=O)[nH]c3c2)c(C(F)(F)F)n1 [Example 200]		7.44	6.95		
COc1cc(Cl)c(-c2cc3[nH]c(=O)n(-c4cncc5ccccc45)c(=O)c3s2)cc1F [Example 725]	8.07	7.71			
COc1cc(-c2ccc3c(=O)n(-c4cncc5ccccc45)c(=O)[nH]c3c2)c(C#N)cc1F [Example 319]		7.55	7.97		
COc1cc(-c2cc3c(s2)c(=O)n(-c2nncc4c(C)nn(C)c24)c(=O)n3CCC#N)c(Cl)cc1F [Example 892]	7.87	7.48			
O=c1[nH]c2cc(-c3ccsc3-c3ccsc3Cl)ccc2c(=O)n1-c1cncc2ccccc12 [Example 85]		6.12	5.83		
O=c1[nH]c2cc(-c3ccccc3Cl)ccc2c(=O)n1-c1cncc2ccccc12 [Example 73, 7-(2-chlorophenyl)-3-(isoquinolin-4-yl)quinazoline-2,4(1H,3H)-dione]		6.58	6.80		
NC(=O)c1cncc(-c2cccc(Cl)c2-c2ccc3c(=O)n(-c4cncc5ccccc45)c(=O)[nH]c3c2)c1 [Example 185]		6.31	> 8.52		
O=c1[nH]c2cc(-c3c(Cl)cccc3CC3CCOCC3)sc2c(=O)n1-c1cncc2ccccc12 [Example 561, 6-[2-chloro-6-(tetrahydropyran-4-ylmethyl)phenyl]-3-(4-isoquinolyl)-1H-thieno[3,2-d]pyrimidine-2,4-dione]	6.85	6.75			
Cc1c(C2CCOCC2)cncc1-n1c(=O)[nH]c2cc(-c3ccccc3Cl)sc2c1=O [Example 119, 6-(2-chlorophenyl)-3-(4-methyl-5-(tetrahydro-2H-pyran-4-yl)pyridin-3-yl)thieno[3,2-d]pyrimidine-2,4(1H,3H)-dione]		5.56	6.41		
N#Cc1ccc(Cl)c(-c2ccc3c(=O)n(-c4cncc5ccccc45)c(=O)[nH]c3c2)c1 [Example 182]		7.05	7.35		
Cn1ncc2cncc(-n3c(=O)c4sc(-c5cc(F)c(F)cc5C#N)cc4n(CCC#N)c3=O)c21 [Example 794]	7.50	< 6.00			
O=c1[nH]c2cc(-c3ccccc3Cl)sc2c(=O)n1-c1cnccc1N1CCOCC1 [Example 139]		6.23	6.96		
O=c1[nH]c2cc(-c3c(Cl)cccc3-c3ccc4nccn4c3)ccc2c(=O)n1-c1cncc2ccccc12 [Example 147]		7.77	7.96		
N#CCCn1c(=O)n(-c2cncc(Cl)c2)c(=O)c2sc(-c3ccccc3C#N)cc21 [Example 863]	7.88				7.42
O=c1[nH]c2cc(-c3c(Cl)cccc3-c3cc(C(F)(F)F)c4ncnn4c3)ccc2c(=O)n1-c1cncc2ccccc12 [Example 145]			7.62		7.37
N#Cc1ccncc1-c1cc2[nH]c(=O)n(-c3cncc4ccccc34)c(=O)c2s1 [Example 535]	7.40	6.36			
NS(=O)(=O)c1cccc(-c2cccc(Cl)c2-c2ccc3c(=O)n(-c4cncc5ccccc45)c(=O)[nH]c3c2)c1 [Example 270]		7.07	7.86		
Cc1cnc(F)c(-n2c(=O)c3sc(-c4ccccc4Cl)cc3n(CCC#N)c2=O)c1 [Example 771]	8.43				8.22
COc1cc(-c2cc3c(s2)c(=O)n(-c2cncc4nc(C(F)(F)F)n(C)c24)c(=O)n3CCC#N)c(C#N)cc1F [Example 859]	7.20	6.77			
